# Reference: US10806730B2, “Methods of treating cancer with farnesyltransferase inhibitors” (Kura Oncology, Inc., priority 2017, dated 2020)
# Legend:
# Assay type in all cases: in vivo, human
# [1] = tested on: higher risk MDS/CMML subjects; assay: Clinical study of tipifarnib (INT-28) in higher risk MDS/CMML
# Method: A clinical study of tipifarnib (300 mg bid (twice daily), 3 weeks on/1 week off) was conducted in 82 higher risk MDS/CMML subjects. 67 subjects were transfusion dependent (TD) at study entry, whereby a subject receiving one or several red blood cell (RBC) transfusions during screening and up to the first administration of tipifarnib was classified as TD.
# 30/67 (45%) MDS subjects were initially classified as having moderate to severe neutropenia, based on their absolute neutrophil count (ANC) of <1,000 cells/μl blood prior to receiving tipifarnib. The ANC of the remaining 37/67 (55%) MDS subjects was ≥1,000 cells/μl blood. 9/30 (30%) MDS subjects with moderate to severe neutropenia and 2/37 (5%) MDS subjects without moderate to severe neutropenia converted to transfusion independence during the tipifarnib study. […] The majority of the subjects that developed transfusion independence were of intermediate (INT) risk of developing AML.
# [2] = tested on: elderly patients with newly diagnosed, de novo, or secondary AML; assay: Ph3 study AML301, tipifarnib vs BSC
# Method: (§1) Clinical studies with tipifarnib were performed in newly diagnosed elderly patients with poor risk AML (CTEP-20, Phase 2) and relapsed and refractory AML (INT-17, Phase 2). Patient selection in these studies was not based on genetic markers. Anecdotal evidence of tipifarnib single agent activity was reported. […] Median OS in the overall study was 107 days for the Tipifarnib group and 109 days for the BSC group in AML301.
# [3] = tested on: newly diagnosed elderly patients with poor risk AML; assay: CTEP-20 Phase 2 tipifarnib study
# Method: as §1
# [4] = tested on: relapsed and refractory AML; assay: INT-17 Phase 2 tipifarnib study
# Method: as §1
# [5] = 34 study subjects with outcome and expression data
# [6] = CXCR4/CXCR2 expression ratio quartiles 1st-3rd
# [7] = bone marrow CXCR4/CXCR2 expression ratio in the upper quartile
compound,measurement,setting,value
Cn1cncc1[C@@](N)(c1ccc(Cl)cc1)c1ccc2c(c1)c(-c1cccc(Cl)c1)cc(=O)n2C [tipifarnib],conversion to transfusion independence (TI),"[1]; 67 transfusion dependent (TD) subjects, 300 mg bid, 3 weeks on/1 week off",16%
same,conversion to transfusion independence,[1]; MDS subjects with neutropenia and high peripheral blast cell count >1%,11%
same,conversion to transfusion independence,[1]; MDS subjects with neutropenia and low peripheral blast cell count ≤1%,38%
same,conversion to transfusion independence,"[1]; TD MDS subjects with moderate to severe neutropenia (ANC <1,000 cells/μl)",30%
same,conversion to transfusion independence,"[1]; TD MDS subjects without moderate to severe neutropenia (ANC ≥1,000 cells/μl)",5%
same,persistence of RBC and platelet transfusion independence,"[1]; exemplary MDS subject, ANC at screening=400 cells/μl, 300 mg bid, 3 weeks on/1 week off",308 days
same,"hazard ratio, tipifarnib vs reference therapy","[2]; ANC/WBC<0.3 and marrow blasts>60%, N=110, P=0.08",0.67
same,Median survival,"[2]; ANC/WBC<0.4, WBC>2, platelets>20, N=135",146 days
same,"hazard ratio, tipifarnib vs BSC","[2]; ANC/WBC<0.4, WBC>2, platelets>20, N=135, P=0.046",0.7
same,median progression free survival (PFS),"[2]; BMR<0.1 prior to treatment, N=73",83 days
same,median PFS,"[2]; BMR≥0.1 prior to treatment, N=140",60 days
same,Median OS,[2]; overall study,107 days
same,"Hazards ratio, Tipifarnib compared with BSC","[2]; overall study, N=457, non significant",1.02
same,Median survival,"[2]; subset with high BM blasts (>40%) and low peripheral blasts (<10%), N=82",201 days
same,"HR, tipifarnib vs BSC","[2]; subset with high BM blasts (>40%) and low peripheral blasts (<10%), N=82, P=0.019",0.58
same,Median overall PFS,[3]; [5],84 days
same,Median overall survival,[3]; [5],233 days
same,median progression free survival (PFS),"[3]; BMR<0.1 prior to treatment, N=57",93 days
same,median PFS,"[3]; BMR≥0.1 prior to treatment, N=84",47 days
same,"Median survival (FIG. 7A, PFS probabilities)",[3]; [6],67 days
same,Median survival (FIG. 7B),[3]; [6],179 days
same,"HR (FIG. 7B, survival), upper quartile vs quartiles 1st-3rd","[3]; CXCR4/CXCR2 expression ratio, p=0.07",0.26
same,"HR (FIG. 7A, PFS), upper quartile vs quartiles 1st-3rd","[3]; CXCR4/CXCR2 expression ratio, p=0.09",0.44
same,"Median survival (FIG. 7A, PFS probabilities)",[3]; [7],406 days
same,Median survival (FIG. 7B),[3]; [7],728 days
same,overall survival,[4]; 57 subjects with CXCR4/CXCR2 ratio data,87 days
same,median PFS,"[4]; AML subjects overexpressing CXCR4, N=8",143 days
same,median PFS,"[4]; AML subjects with relatively lower levels of CXCR4 expression, N=49",29 days
same,Median survival,[4]; CXCR4/CXCR2 quintile group 1,56 days
same,Median survival,[4]; CXCR4/CXCR2 quintile group 2,78 days
same,Median survival,[4]; CXCR4/CXCR2 quintile group 3,44 days
same,Median survival,[4]; CXCR4/CXCR2 quintile group 4,105 days
same,Median survival,[4]; CXCR4/CXCR2 quintile group 5,182 days
same,"HR, 5th quintile of CXCR4/CXCR2 ratio vs rest",[4]; p=0.04,0.52
same,Median survival,[4]; rest of the subjects (not 5th quintile of CXCR4/CXCR2 ratio),74 days
